Values of other authors in US4987122A, “Peptide compounds and medical method of use thereof” (Nycomed AS, priority 1986, dated 1991).
[ ]: non-standard residue; d: D form. pGlu = O=C1CC[C@@H](C(=O)O)N1

Legend:
[1] = subjected to freezing and thawing; reversed by treatment with mercaptoethanol
[2] = system: granulopoiesis; conditions: as reported in the European patent application

For “pyroGlu-Glu-Asp-Cys-LysOH ([pGlu]EDCK-OH; SMILES NCCCC[C@H](NC(=O)[C@H](CS)NC(=O)[C@H](CC(=O)O)NC(=O)[C@H](CCC(=O)O)NC(=O)[C@@H]1CCC(=O)N1)C(=O)O)”, which “activity after freezing and thawing” value [1] is on record?
Its value is “stimulatory activity”.

Which “activity of the synthetic compound” value [2] does the source give for “pyroGlu-Asp-Asp-Cys-LysOH ([pGlu]DDCK-OH; SMILES NCCCC[C@H](NC(=O)[C@H](CS)NC(=O)[C@H](CC(=O)O)NC(=O)[C@H](CC(=O)O)NC(=O)[C@@H]1CCC(=O)N1)C(=O)O) [synthetic compound with the structure postulated for the natural granulopoiesis factor]” here?
The value was “inactive”.
